Source: patent publication US10391150B2, “Treatments for migraine and related disorders” (The University of Chicago, priority 2011, dated 2019)
Read-outs that look alike come from different tables or passages of the source.

Experiments:
[1] = tested on: microglia in hippocampal slice cultures; format: cell-based, rat
[2] = tested on: SD in neocortex and hippocampus of anesthetized rat; assay: SD threshold in vivo (0.5 M KCl injection) after nasal administration; conditions: a day after nasal treatment (IGF-1 150 μg; IL-11 1 μg; IFN-γ 50,000 units); control 1-8 nL
Protocol: Images show experimental setups for nasal administration and testing. (FIG. 7A) Nasal injection setup showing heat lamp and thermo-regulator that maintains temperature at 37° C. plus nose cone used to deliver isoflurane anesthesia. (FIG. 7B) Operator is shown administering nasal IGF-1 solution, which is performed in a fume hood to adequately vent isoflurane from nose cone. (FIG. 7C) Image illustrates standard electrophysiology setup. Anesthetized animal is placed into a standard electrophysiology holder and anesthesia maintained by a nose cone delivering 3% isoflurane in oxygen. Arterial oxygen saturation is monitored with a pulse-oximeter. Animals are warmed to 37.5° C. with a heating plate. SD is induced by progressively injecting larger volumes of 0.5 M KCl from an 8 μm diameter microelectrode. SD is registered with a second microelectrode used for DC recordings placed more caudally. After SD is evoked by a given injection pulse, the stimulating electrode is withdrawn and a volume re-injected under mineral oil. The diameter of the resultant KCl injection sphere is then measured off line using a compound microscope and the injection volume calculated. For example, in the above whole animal experiments it took 1-8 nL of 0.5 M KCl to evoke SD in control brain regions while after acute IGF-1 this amount rose to 67-109 nL. A day after IGF-1 treatment the volume needed to evoked SD was 34-48 nL. IFN-γ treatment required 338 nL of 0.5 M KCl a day after treatment and IL-11 required 67-200 nL.
Rats (FIGS. 6 and 7) are anesthetized with inhalational isoflurane and kept warm. While anesthetized, animals are placed in a supine position and 50 μL of sterile drug (i.e., IFN-γ, IGF-1, or IL-11) solution [or sterile saline vehicle (sham control)] is administered nasally by delivering 5 μL alternating between the left and right naris every 2 min over 20 minutes. Animals are given nasal drug treatments daily at the same time for 7 days before subsequent experiments. Doses for all 3 agents begin with the effective doses noted in our work using slice cultures (1×), then include others (0.1× and 10×). The inventors base this strategy on the fact that the effective culture dose for IGF-1 (40 ng/mL) closely approximates the dose used in vivo (143 μg/kg).
This approach was applied to measurement of SD threshold (FIG. 10) after treatment (FIG. 7) with nasally administered IGF-1 (150 μg), IL-11 (1 μg), IFN-γ (50,000 units), and insulin (20 μg). […] Resistance against SD was always greater in hippocampus compared to neocortex (n=4, controls; n=3, acutely after IGF-1; n=6, one day after IGF-1; n=6, one day after IL-11; n=6, one day after IFN-γ; and n=3, acutely after insulin).
Nasal administration followed by SD threshold evaluation in vivo. Vehicle or human recombinant IGF-1 (150 μg) is administered intranasally. SD threshold is established by injection of nanoliter volumes of 0.5 M KCl into neocortex or hippocampus (−2.0 mm from Bregma and 1.5 mm lateral from midline at either 750 μm or 2,800 μm into brain, respectively) using a thin-walled glass pipette and Picospritzer. Once a threshold is established, it is confirmed two more times, with an exemplary record from a vehicle-sham animal shown below. […] The diameter of the injected sphere is then measured using a compound microscope and used to calculate the injected volume, then moles of potassium. […]

[3] = tested on: OS from cLTP in hippocampal slice cultures; assay: OS / reactive oxygen species generated from chemical long-term potentiation (cLTP) in slice cultures; format: cell-based, rat; conditions: 3 days treatment (IFN-γ 500 U/mL; IL-11; IGF-1), compared to shams
Protocol: This beneficial effect of low-level IFN-γ is supported by results from rats. In rats, enrichment, which occurs with hippocampal learning, led to a significant elevation in hippocampal T-cells, IFN-γ and MBP.
Experiments were performed in rat hippocampal slices cultures and SD induced as previously described (Pusic et al., 2011). Results were derived from n≥3-6/group. […] This is consistent with the neural activity increase seen after SD, which mimics the hyperexcitability evident in migraine patients.
This prompted the inventors to examine whether insulin could reduce SD susceptibility by increasing CA3 pyramidal neuron bursting. The inventors induced SD trans-synaptically in rat HSC using electrical stimuli (100 μs pulses @ 10 Hz for 1 s) ranging from 1 to 10,000 nC in order to determine SD threshold in sham and experimental groups (Pusic et al., 2011). Results were based on n≥3-6/group. […] This insulin dose approximates the pharmacological levels seen in humans treated with nasal insulin. […] The inventors hypothesized that the effect of insulin occurred through IGF-1 receptor cross-talk.
The inventors use a well-accepted method for inducing cLTP in slice cultures (Kraig et al., 2010; Otmakhov et al., 2004a; Otmakhov et al., 2004b; Kopec et al., 2006). The protocol consists of raising cAMP levels and increasing synaptic activity using rolipram/forskolin applied in a Mg^2+-free Ringer's solution (36° C.) for 5 min, then allowing slices to recover in normal media.

For `NC1=N[C@H](O)[C@H]2[C@H]3O[C@]4(O)O[C@@H]([C@@H](O)[C@@]2(N1)[C@@H]4O)[C@]3(O)CO` [TTX, tetrodotoxin], the “number of microglia moving long distances” value [1] was “significantly increased the number of microglia moving long distances”.

lipopolyssacharide [LPS] was tested, and the “number of microglia moving long distances” value ([1]; slice cultures, vital imaging) was “significantly decreased the number of microglia moving long distances”.

B1: Interleukin 11 (protein, listed as Homo sapiens)
chain: MNCVCRLVLVVLSLWPDTAVAPGPPPGPPRVSPDPRAELDSTVLLTRSLLADTRQLAAQLRDKFPADGDHNLDSLPTLAMSAGALGALQLPGVLTRLRADLLSYLRHVQWLRRAGGSSLKTLEPELGTLQARLDRLLRRLQLLMSRLALPQPPPDPPAPPLAPPSSAWGGIRAAHAILGGLHLTLDWAVRGLLLLKTRL
B1 was tested, and the “volume of 0.5 M KCl needed to evoke SD” value [2] was 67 to 200 nL and the “OS / reactive oxygen species generated from cLTP” value [3] was “significantly reduced OS”.
